Results: US20050032138A1 (priority 2003, published 2005)
Where two headings read alike, the source gives them in different places.

Assays:
PrPc and PrPsc [1] = target: PrPc and PrPsc (Homo sapiens, UniProt P04156)
PrPc [2] = target: PrPc (Mesocricetus auratus, UniProt P04273)
PrPc and PrPsc [3] = tested on: PrPc and PrPsc
PrPc [4] = target: T1, PrPc (Homo sapiens, UniProt P04156)
PrPc [5] = target: T1, PrPc; remark: listed apart in the source
[6] = Fast Red staining with 3F4, red/pink beads indicate bound native PrPc or antibody, scrapie-infected hamster brain homogenate

PrPc (Mesocricetus auratus, UniProt P04273), sequence (P04273 23-254 limits assumed): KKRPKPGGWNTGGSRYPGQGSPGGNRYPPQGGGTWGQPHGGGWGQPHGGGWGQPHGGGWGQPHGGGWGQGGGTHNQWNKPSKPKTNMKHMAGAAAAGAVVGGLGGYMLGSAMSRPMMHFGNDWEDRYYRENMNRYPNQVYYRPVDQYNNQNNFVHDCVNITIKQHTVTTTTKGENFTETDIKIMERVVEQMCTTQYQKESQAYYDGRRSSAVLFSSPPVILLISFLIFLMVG

Substance	Bead Color (PrPc [2])	Intensity of Chemiluminescent Signal after Denaturing (PrPc and PrPsc [3])	other results
DVR	White	Strong	Isoform binding preference concluded from first and second support signals (PrPc and PrPsc [1]): preferentially binds PrPsc; Signal on the second support following denaturation and transfer (PrPc and PrPsc [1]): strong; Bead colour under the microscope following on-bead detection (PrPc [4]): white; Signal on the first support (PrPc [5]): weak
EHATYRA	White	Strong	–
EWWETV	White	Medium	–
FPK	–	–	Beads identified as PrPsc-specific binders (film 2 signal from PrPres after PK) (PrPres): specific for PrPsc
FQGTREA	White	Strong	–
HWK	–	–	Beads identified as PrPsc-specific binders (film 2 signal from PrPres after PK) (PrPres): specific for PrPsc
KWATRYA	White	Strong	–
LLR	–	–	Beads identified as PrPsc-specific binders (film 2 signal from PrPres after PK) (PrPres): specific for PrPsc
NSTKFDA	Pink	Strong	–
RWD	–	Strong	Bead Color (PrPc [2]; [6]): Bright pink
RWEREDA	Pink	Strong	–
SVYQLDA	White	Medium	–
TGTNRYA	White	Strong	–
VARENIA	White	Strong	–
WEE	–	–	Beads identified as PrPsc-specific binders (film 2 signal from PrPres after PK) (PrPres): specific for PrPsc
YID	–	Strong	Bead Color (PrPc [2]; [6]): Bright pink
